Measurements as given in patent US6221865A, “Inhibitors of protein isoprenyl transferases” (priority 1998, dated 2001).
Structures can show the parent of a compound that is named as a salt. Where two headings read alike, the source gives them in different places. One block for each compound: values may come before it.

Molecular target: T1, protein farnesyltransferase (Rattus norvegicus, UniProt Q02293+Q04631)
T1 construct: The enzyme is purified according to Reiss, Y., et al., Cell, 62: 81-88 (1990), utilizing steps one through three; from tissue; host or cells: rat brain
Assay: Inhibition of farnesyltransferase (scintillation proximity assay, rat brain enzyme, biotin-K Ras B fragment substrate)
Format: biochemical
Details: for % inhibition of farnesyltransferase at 1 × 10^-5 M: 1 × 10^-5 M (Table 1); for inhibition at 1 µM: read-out: % inhibition of farnesyltransferase at 1 × 10^-6 M; for inhibition at 1 µM / % inhibition of farnesyltransferase at 1 × 10^-6 M: 1 × 10^-6 M (Table 2); for % inhibition of farnesyltransferase at 1 × 10^-8 M: 1 × 10^-8 M (Table 4)
Source text: The ability of the compounds of the invention to inhibit protein farnesyltransferase or protein geranylgeranyltransferase can be measured according to the method of Moores, et al., J. Biol. Chem. 266: 14603 (1991) or the method of Vogt, et al., J. Biol. Chem. 270:660-664 (1995). In addition, procedures for determination of the inhibition of farnesylation of the oncogene protein Ras are described by Goldstein, et al., J. Biol. Chem., 266:15575-15578 (1991) and by Singh in U.S. Pat. No. 5,245,061.
In addition, in vitro inhibition of protein farnesyltransferase may be measured by the following procedure. Rat brain protein farnesyltransferase activity is measured using an Amersham Life Science commercial scintillation proximity assay kit and substituting a biotin-K Ras B fragment (biotin-[…]Ble-Met-CO2 H), […] final concentration, for the biotin-lamin substrate provided by Amersham. The enzyme is purified according to Reiss, Y., et al., Cell, 62: 81-88 (1990), utilizing steps one through three.
The % inhibition of protein farnesyltransferase was determined for representative compounds of the invention.

[1] = read-out: % inhibition of farnesyltransferase at 1 × 10^-7 M, 1 × 10^-7 M (Table 3)

T1 sequence (Q02293 whole entry, one chain of several): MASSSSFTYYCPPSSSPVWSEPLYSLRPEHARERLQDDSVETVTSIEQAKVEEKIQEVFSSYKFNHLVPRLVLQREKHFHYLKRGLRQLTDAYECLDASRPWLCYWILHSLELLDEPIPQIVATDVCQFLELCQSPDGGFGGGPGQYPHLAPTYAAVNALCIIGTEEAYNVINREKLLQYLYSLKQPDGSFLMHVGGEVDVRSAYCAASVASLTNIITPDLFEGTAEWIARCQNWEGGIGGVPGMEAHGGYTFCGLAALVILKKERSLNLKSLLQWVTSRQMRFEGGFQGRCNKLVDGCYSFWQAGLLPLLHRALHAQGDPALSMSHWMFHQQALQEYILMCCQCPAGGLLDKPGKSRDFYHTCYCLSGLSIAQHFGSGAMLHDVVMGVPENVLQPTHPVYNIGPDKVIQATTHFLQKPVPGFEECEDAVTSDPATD

Structure (SMILES): CSCC[C@H](NC(=O)c1ccc(CNC(CC2CCCCC2)C2CCCCC2)cc1-c1ccccc1C)C(=O)[O-].[Li+] (stereo partly drawn) [Example 616]
- % inhibition of farnesyltransferase at 1 × 10^-7 M (1 × 10^-7 M (Table 3)): 95%

Structure (SMILES): CSCC[C@H](NC(=O)c1ccc(CCc2ccccc2Cc2ccccc2)cc1-c1ccccc1C)C(=O)O [Example 458, lithium salt]
- inhibition at 0.1 µM [1]: 87%

- % inhibition of farnesyltransferase at 1 × 10^-5 M: 69%
Structure (SMILES): CSCC[C@H](NC(=O)c1ccc(CNc2cc(C)on2)cc1-c1ccccc1)C(=O)O [Example 372]

- inhibition at 1 µM: 74%
Structure (SMILES): CSCC[C@H](NC(=O)c1ccc(CN2CCNCC2)cc1-c1ccccc1)C(=O)O [Example 290, (4-piperazinylmethyl-2-phenylbenzoyl)methionine]

- inhibition at 1 µM: 23%
Structure (SMILES): CSCC[C@H](NC(=O)c1ccc(CN2CCC(O)C2)cc1-c1ccccc1)C(=O)O (stereo partly drawn) [Example 291]

- inhibition at 0.1 µM [1]: 92%
Structure (SMILES): CSCC[C@H](NC(=O)c1ccc(CCc2ccc(Oc3ccccc3N)cc2)cc1-c1ccccc1C)C(=O)O [Example 857, N-[4-(2-(4-(2-aminophenoxy)phenyl)ethyl)-2-(2-methylphenyl)benzoyl]methionine]

- inhibition at 1 µM: 93%
Structure (SMILES): Cc1ccccc1-c1cc(CN(C2CC2)C(C)(C)CC2CCCCC2)ccc1C(=O)N[C@@H](CCS(C)(=O)=O)C(=O)O [Example 320]

Structure (SMILES): CSCC[C@H](NC(=O)c1ccc(COC2CCC(NC(=O)OC(C)(C)C)CC2)cc1-c1ccccc1C)C(=O)[O-].[Li+] (stereo partly drawn) [Example 817]
- % inhibition of farnesyltransferase at 1 × 10^-7 M (1 × 10^-7 M (Table 3)): 60%

Structure (SMILES): CSCC[C@H](NC(=O)c1ccc(CCc2cccc(-c3ccccc3)c2)cc1-c1ccccc1C)C(=O)O [Example 793, N-[4-(2-(3-phenylphenyl)ethyl)-2-(2-methylphenyl)benzoyl]methionine lithium salt]
- inhibition at 1 µM: 94%

- % inhibition of farnesyltransferase at 1 × 10^-8 M: 76%
Structure (SMILES): CSCC[C@H](NC(=O)c1ccc(COCc2ccc(-c3ccc(Cl)cc3)o2)cc1-c1ccccc1C)C(=O)NS(=O)(=O)c1ccccc1 [Example 819]

- % inhibition of farnesyltransferase at 1 × 10^-6 M: 67%
Structure (SMILES): COc1ccc(CC(=O)Nc2ccc(C(=O)N[C@@H](CCSC)C(=O)O)c(-c3ccccc3C)c2)cc1 [Example 542]

- % inhibition at 0.1 μM (*) (Table 6, * = 0.1 μM (footnote), title prints 0.1 mM): 83%
Structure (SMILES): CCC(=O)N(CCCc1ccc(C(=O)N[C@@H](CCSC)C(=O)O)c(-c2ccccc2C)c1)C1CCCCC1 [Example 1145]

- % inhibition of farnesyltransferase at 1 × 10^-6 M: 35%
Structure (SMILES): COc1ccc(CNCc2ccc(C(=O)N[C@@H](CCSC)C(=O)O)c(-c3ccccc3)c2)c(OC)c1 [Example 655]

- % inhibition of farnesyltransferase at 1 × 10^-7 M (1 × 10^-7 M (Table 3)): 95%
Structure (SMILES): CSCC[C@H](NC(=O)c1ccc(CN(CCC2CCCCC2)S(C)(=O)=O)cc1-c1ccccc1C)C(=O)O [Example 611]

Structure (SMILES): CSCC[C@H](NC(=O)c1ccc(COCc2cccc(Cl)c2)cc1-c1ccccc1C)C(=O)[O-].[Li+] [Example 934]
- % inhibition of farnesyltransferase at 1 × 10^-8 M: 71%

- inhibition at 1 µM: 98%
Structure (SMILES): CSCC[C@H](NC(=O)c1ccc(CN(C)C(CC2CCCCC2)C(=O)N2CCCCC2)cc1-c1ccccc1C)C(=O)O (stereo partly drawn) [Example 301]

Structure (SMILES): CSCC[C@H](NC(=O)c1ccc(COCc2ccc(Br)o2)cc1-c1ccccc1C)C(=O)[O-].[Li+] [Example 434]
- % inhibition of farnesyltransferase at 1 × 10^-7 M (1 × 10^-7 M (Table 3)): 93%

- % inhibition of farnesyltransferase at 1 × 10^-7 M (1 × 10^-7 M (Table 3)): 97%
Structure (SMILES): CSCC[C@H](NC(=O)c1ccc(CN[C@H](CO)C2CCCCC2)cc1-c1ccccc1C)C(=O)O [Example 520]

- % inhibition of farnesyltransferase at 1 × 10^-7 M (1 × 10^-7 M (Table 3)): 78%
Structure (SMILES): CCCCN(CCCC)Cc1ccc(C(=O)N[C@@H](CCSC)C(=O)O)c(-c2ccccc2C)c1 [Example 917]

- inhibition at 1 µM: 90%
Structure (SMILES): Cc1ccccc1-c1cc(CN(C(C)C)C(C)(C)Cc2ccccc2)ccc1C(=O)N[C@@H](CCS(C)(=O)=O)C(=O)O [Example 321]

- % inhibition of farnesyltransferase at 1 × 10^-6 M: 57%
Structure (SMILES): CSCC[C@H](NC(=O)c1ccc(NC(=O)[C@@H](N)COCc2ccccc2)cc1-c1ccccc1)C(=O)O [Example 503]

- inhibition at 1 µM: 97%
Structure (SMILES): Cc1ccccc1-c1cc(CN(C(C)C)C2(Cc3ccccc3)CC2)ccc1C(=O)N[C@@H](CCS(C)(=O)=O)C(=O)O [Example 327]

- inhibition at 1 µM: 98%
Structure (SMILES): CSCC[C@H](NC(=O)c1ccc(CN(C2CC2)C2(CC3CCCCC3)CC2)cc1-c1ccccc1C)C(=O)O [Example 324]

- % inhibition of farnesyltransferase at 1 × 10^-6 M: 36%
Structure (SMILES): CSCC[C@H](NC(=O)c1ccc(CNc2ccccc2CCO)cc1-c1ccccc1)C(=O)O [Example 671]

- % inhibition of farnesyltransferase at 1 × 10^-6 M: 87%
Structure (SMILES): CSCC[C@H](NC(=O)c1cc(Cc2ccccc2)c(COCCCc2ccccc2)cc1-c1ccccc1C)C(=O)O [Example 925]

Structure (SMILES): CSCC[C@H](NC(=O)c1ccc(COCc2oc(-c3ccc(Cl)cc3)c(Cl)c2Cl)cc1-c1ccccc1C)C(=O)[O-].[Li+] [Example 829]
- % inhibition of farnesyltransferase at 1 × 10^-8 M: 92%

- inhibition at 0.1 µM [1]: 85%
Structure (SMILES): CSCC[C@H](NC(=O)c1ccc(CCc2ccc(Oc3ccccc3)nn2)cc1-c1ccccc1C)C(=O)O [Example 811, N-[4-(2-(3-phenoxylyridazin-6-yl)ethyl)-2-(2-methylphenyl)benzoyl]methionine lithium salt]

- % inhibition of farnesyltransferase at 1 × 10^-8 M: 75%
Structure (SMILES): CSCC[C@H](NC(=O)c1ccc(COCc2ccc(-c3ccc(N(C)C)cc3)o2)cc1-c1ccccc1C)C(=O)O [Example 821]

- % inhibition of farnesyltransferase at 1 × 10^-7 M (1 × 10^-7 M (Table 3)): 99%
Structure (SMILES): CSCC[C@H](NC(=O)c1ccc(CNC(CC2CCCCC2)CC2CCCCC2)cc1-c1ccccc1C)C(=O)O [Example 524]

- % inhibition of farnesyltransferase at 1 × 10^-5 M: 44%
Structure (SMILES): CSCC[C@H](NC(=O)c1ccc(NC(=O)CCN)cc1-c1ccccc1)C(=O)O [Example 750]

- % inhibition of farnesyltransferase at 1 × 10^-6 M: 96%
Structure (SMILES): CSCC[C@H](NC(=O)c1ccc(CN(CCc2ccccc2)Cc2ccccc2)cc1-c1ccccc1C)C(=O)O [Example 513]

- % inhibition of farnesyltransferase at 1 × 10^-6 M: 96%
Structure (SMILES): CSCC[C@H](NC(=O)c1ccc(CN(CCc2ccccc2)c2ccccc2)cc1-c1ccccc1C)C(=O)O [Example 507]

- inhibition at 1 µM: 62%
Structure (SMILES): CSCC[C@H](NC(=O)c1ccc(CNC(C)(C)CC2CCCCC2)cc1-c1ccccc1C)C(=O)O [Example 308]

- % inhibition of farnesyltransferase at 1 × 10^-6 M: 85%
Structure (SMILES): CSCC[C@H](NC(=O)c1ccc(CNCCSC(C)(C)C)cc1-c1ccccc1)C(=O)O [Example 627]

- % inhibition of farnesyltransferase at 1 × 10^-7 M (1 × 10^-7 M (Table 3)): 91%
Structure (SMILES): COc1ccccc1CCOCc1ccc(C(=O)N[C@@H](CCSC)C(=O)O)c(-c2ccccc2C)c1 [Example 589]

- % inhibition of farnesyltransferase at 1 × 10^-5 M: 55%
Structure (SMILES): COc1cc2c(cc1OC)C(CNCc1ccc(C(=O)N[C@@H](CCSC)C(=O)O)c(-c3ccccc3)c1)=CC(C1CCCCC1)C2 (stereo partly drawn) [Example 659]

Structure (SMILES): CSCC[C@H](NC(=O)c1ccc(CCc2ccc(C3CCCCC3)cc2)cc1-c1ccccc1C)C(=O)O [Example 461, N-[4-(2-(4-cyclohexylphenyl)ethyl)-2-(2-methylphenyl)benzoyl]methionine lithium salt]
- inhibition at 0.1 µM [1]: 93%

- % inhibition of farnesyltransferase at 1 × 10^-6 M: 41%
Structure (SMILES): COc1cccc(CNCc2ccc(C(=O)N[C@@H](CCSC)C(=O)O)c(-c3ccccc3)c2)c1 [Example 652]

Structure (SMILES): CSCC[C@H](NC(=O)c1ccc(COC(Cc2ccccc2)Cc2ccccc2)cc1-c1ccccc1C)C(=O)[O-].[Li+] [Example 522]
- % inhibition of farnesyltransferase at 1 × 10^-7 M (1 × 10^-7 M (Table 3)): 93%

Structure (SMILES): CSCC[C@H](NC(=O)c1ccc(COCc2ccc(-c3cccc([N+](=O)[O-])c3)o2)cc1-c1ccccc1C)C(=O)[O-].[Li+] [Example 440]
- % inhibition of farnesyltransferase at 1 × 10^-7 M (1 × 10^-7 M (Table 3)): 92%

- inhibition at 1 µM: 94%
Structure (SMILES): CCCCN(C)N(CCC1CCCCC1)Cc1ccc(C(=O)N[C@@H](CCSC)C(=O)O)c(-c2ccccc2C)c1 [Example 299]

- % inhibition of farnesyltransferase at 1 × 10^-6 M: 72%
Structure (SMILES): CSCC[C@H](NC(=O)c1ccc(CN(CCO)c2ccccc2)cc1-c1ccccc1)C(=O)O [Example 505]

- inhibition at 1 µM: 93%
Structure (SMILES): CSCC[C@H](NC(=O)c1ccc(CN(C2CC2)C(C)(C)Cc2ccccc2)cc1-c1ccccc1C)C(=O)O [Example 315]

- % inhibition of farnesyltransferase at 1 × 10^-5 M: 40%
Structure (SMILES): COc1ccc(Br)c(C(=O)Nc2ccc(C(=O)N[C@@H](CCSC)C(=O)O)c(-c3ccccc3)c2)c1 [Example 754]

- % inhibition of farnesyltransferase at 1 × 10^-6 M: 45%
Structure (SMILES): CSCC[C@H](NC(=O)c1ccc(CNc2ccc(CCO)cc2)cc1-c1ccccc1)C(=O)O [Example 694]

- % inhibition of farnesyltransferase at 1 × 10^-5 M: 40%
Structure (SMILES): CSCC[C@H](NC(=O)c1ccc(CNc2cccc(C)c2)cc1-c1ccccc1)C(=O)O [Example 674]

- inhibition at 0.1 µM (read-out: % inhibition at 0.1 μM (*), Table 6, * = 0.1 μM (footnote), title prints 0.1 mM): 90%
Structure (SMILES): CSCC[C@H](NC(=O)c1ccc(CN2CCC[C@H]2CN(C)C2CCCCC2)cc1-c1ccccc1C)C(=O)O [Example 1127]

Structure (SMILES): CSCC[C@H](NC(=O)c1ccc(CN(CCF)CCC2CCCCC2)cc1-c1ccccc1C)C(=O)O [Example 1094]
- % inhibition at 0.01 μM (**) (Table 6, ** = 0.01 μM (footnote), title prints 0.01 mM): 96%

- % inhibition of farnesyltransferase at 1 × 10^-5 M: 43%
Structure (SMILES): CSCC[C@H](NC(=O)c1ccc(CNCCC2CCCCC2)cc1-c1ccccc1)C(=O)O [Example 663]

- % inhibition of farnesyltransferase at 1 × 10^-6 M: 54%
Structure (SMILES): CSCC[C@H](NC(=O)c1ccc(CNc2ccccc2C(N)=O)cc1-c1ccccc1)C(=O)O [Example 644]

- % inhibition of farnesyltransferase at 1 × 10^-7 M (1 × 10^-7 M (Table 3)): 80%
Structure (SMILES): CCSCC(CC1CCCCC1)N(Cc1ccc(C(=O)N[C@@H](CCSC)C(=O)O)c(-c2ccccc2C)c1)CC(C)C (stereo partly drawn) [Example 945]
